Here are results for 15 molecules from US11827664B2, “Biaryl amides with modified sugar groups for treatment of diseases associated with heat shock protein pathway” (REATA PHARMACEUTICALS, INC., priority 2018, dated 2023).

Series [1] in a line: Stability in acidic medium, monitored by HPLC. Format: physicochemical. Particulars: 0.1 N aq. HCl/MeOH (2/1 v/v), room temperature. As for the experimental part: A sample of a test compound (1.2 mg) was dissolved in 0.1 N aq. HCl/MeOH (2/1 v/v, 4 mL) at room temperature. The degradation of the test compound was monitored by HPLC. The percentage of the test compound remaining was calculated using the peak area % in HPLC.

For the next series, the system named is diabetic mice. Particulars: cited from earlier work.
The subject of the next series is neurons. Particulars: neurons; cited from earlier work.
Series [2] has as its system rat streptozotocin induced diabetes model for painful diabetic neuropathy. Briefly: Streptozotocin-induced rat model of painful diabetic neuropathy, Von Frey measurement for allodynia. Format: in vivo. Particulars: STZ 60 mg/kg IV, oral QD dosing started on Day 10. The procedure:
A streptozotocin-induced rat model was used to test the effectiveness of KU-596 (T0) and several of the instant compounds in a model of painful diabetic neuropathy. The study rats were allowed to accliminate to the Von Frey apparatus for one day prior to the initial Von Frey measurement. A baseline Von Frey measurement, a body weight measurement, and blood glucose level measurements were conducted one day before the intravenous administration of streptozotocin to induce diabetes. […] Each of the animals in a treatment group was dosed with either the vehicle or a therapeutic agent orally. Treatment was continued until euthanasia approximately one to two weeks later.
Streptozotocin was injected into rats to induce diabetes after a baseline Von Frey measurement for allodynia was collected. Oral administration of each test drug (Compound T0 (KU-596), FIG. 1A; Compound T2, FIG. 1B, and Compound T1, FIG. 1C) was started on Day 10 after another Von Frey measurement.

[3] abbreviates: 22 hours (footnote *, printed in the 24 h line).

As to `CNC(=O)CCc1ccc(O[C@@H]2OC(C)(C)[C@H](OC)[C@@H](O)[C@H]2O)cc1-c1cccc(F)c1` [T57], the “percentage of test compound remaining (HPLC peak area %)” value was found to be 100.0% in series [1] (0 h); 97.9% in series [1] (4 h); 93.4% in series [1] (8 h); 90.3% in series [1] (12 h); 86.4% in series [1] (16 h); 82.5% in series [1] (20 h). In series [1] (24 h), the “percentage of test compound remaining (HPLC peak area %)” value is given as 79.3%.

For the molecule `CC(=O)NCCc1ccc(O[C@@H]2O[C@@H](C)[C@@H](O)[C@@H](O)[C@@H]2O)cc1-c1cccc(F)c1` [T15], the “percentage of test compound remaining (HPLC peak area %)” value is 100.0% in series [1] (0 h); 99.9% in series [1] (4 h); 99.0% in series [1] (8 h); 98.5% in series [1] (12 h); 97.9% in series [1] (16 h); 97.0% in series [1] (20 h). In series [1] (24 h), the “percentage of test compound remaining (HPLC peak area %)” value was determined as 96.5%.

As to `CO[C@@H]1[C@@H](O)[C@@H](O)[C@H](Oc2ccc3cc(NC(C)=O)c(=O)oc3c2C)OC1(C)C` [KU-32], the “effect on symptoms of DPN / neuropathy in diabetic mice” value with diabetic mice was “significant activity in reversing established symptoms of DPN in diabetic mice”. In the series on neurons, the “effect on mitochondrial function / bioenergetics” value is listed as “improve mitochondrial bioenergetics”.

As for `CC(=O)NCCc1ccc(O[C@@H]2O[C@@H](C)[C@H](O)[C@@H](O)[C@H]2O)cc1-c1cccc(F)c1` [T1], the “percentage of test compound remaining (HPLC peak area %)” value came out at 100.0% in series [1] (0 h); 101.1% in series [1] (4 h); 100.1% in series [1] (8 h); 100.5% in series [1] (12 h); 100.4% in series [1] (16 h); 100.3% in series [1] (20 h). For the same molecule, the “percentage of test compound remaining (HPLC peak area %)” value in series [1] (24 h) is listed as 100.4%. Further, in series [2], the “activity in model of painful diabetic neuropathy relative to T0 (KU-596), Von Frey measurement” value is recorded as “comparable to slightly better activity”.

As to `CO[C@@H]1[C@@H](O)[C@@H](O)[C@H](Oc2ccc(CCNC(C)=O)c(-c3cccc(F)c3)c2)O[C@H]1C` [T2], the “percentage of test compound remaining (HPLC peak area %)” value in series [1] (0 h) was found to be 100.0%; in series [1] (4 h), 99.9%; in series [1] (8 h), 99.5%; in series [1] (12 h), 99.8%; in series [1] (16 h), 100.2%; in series [1] (20 h), 99.9%. Further, the “percentage of test compound remaining (HPLC peak area %)” value in series [1] (setting [3]) is on record as 100.2* %. For the same molecule, the “activity in model of painful diabetic neuropathy relative to T0 (KU-596), Von Frey measurement” value in series [2] was “comparable to slightly better activity”.

Consider `CNC(=O)CCc1ccc(O[C@@H]2O[C@@H](C)[C@H](OC)[C@@H](O)[C@H]2O)cc1-c1cccc(F)c1` [T11], for which the “percentage of test compound remaining (HPLC peak area %)” value in series [1] (0 h) is 100.0%; in series [1] (4 h), 100.2%; in series [1] (8 h), 100.3%; in series [1] (12 h), 100.6%; in series [1] (16 h), 100.9%; in series [1] (20 h), 101.4%. Further, the “percentage of test compound remaining (HPLC peak area %)” value in series [1] (24 h) turned out to be 102.1%.

On to `CC(=O)NCCc1ccc(O[C@H]2O[C@H](C)[C@@H](O)[C@H](O)[C@@H]2O)cc1-c1cccc(F)c1` [T54], for which the “percentage of test compound remaining (HPLC peak area %)” value is listed as 100.0% in series [1] (0 h); 100.4% in series [1] (4 h); 100.2% in series [1] (8 h); 101.0% in series [1] (12 h); 101.1% in series [1] (16 h); 101.3% in series [1] (20 h). The “percentage of test compound remaining (HPLC peak area %)” value in series [1] (24 h) was found to be 101.2%.

Take `CC(=O)NCCc1ccc(O[C@@H]2O[C@@H](CO)[C@H](O)[C@@H](O)[C@H]2O)cc1-c1cccc(F)c1` [T60]: the “percentage of test compound remaining (HPLC peak area %)” value in series [1] (0 h) worked out at 100.0%; in series [1] (4 h), 97.6%; in series [1] (8 h), 97.6%; in series [1] (12 h) it was 97.5%; in series [1] (16 h), 97.2%; in series [1] (20 h), 98.0%. The “percentage of test compound remaining (HPLC peak area %)” value in series [1] (24 h) turned out to be 97.4%.

Take `CO[C@@H]1[C@@H](O)[C@@H](O)[C@H](Oc2ccc(CCNC(C)=O)c(-c3cccc(F)c3)c2)OC1(C)C` [T0, reference compound]: the “percentage of test compound remaining (HPLC peak area %)” value amounted to 100.0% in series [1] (0 h); 96.7 ± 1.4% in series [1] (4 h); 93.4 ± 1.7% in series [1] (8 h); 90.5 ± 2.3% in series [1] (12 h); 87.3 ± 2.9% in series [1] (16 h); 83.9 ± 4.1% in series [1] (20 h). Also, the “percentage of test compound remaining (HPLC peak area %)” value in series [1] (24 h) came out at 81.8 ± 4.2%.

Consider `CC(=O)NCCc1ccc(O[C@@H]2OC(C)(C)[C@H](O)[C@@H](O)[C@H]2O)cc1-c1cccc(F)c1` [T3], for which the “percentage of test compound remaining (HPLC peak area %)” value in series [1] (0 h) came out at 100.0%; in series [1] (4 h), 98.1%; in series [1] (8 h), 96.1%; in series [1] (12 h), 94.1%; in series [1] (16 h) it was 92.2%; in series [1] (20 h), 90.2%. Besides, the “percentage of test compound remaining (HPLC peak area %)” value in series [1] (24 h) is 88.3%.

Turning to `CC(=O)NCCc1ccc(O[C@@H]2OC(C)(C)[C@H](OCc3ccccc3)[C@@H](O)[C@H]2O)cc1-c1cccc(F)c1` [T7], the “percentage of test compound remaining (HPLC peak area %)” value is on record as 100.0% in series [1] (0 h); 93.3% in series [1] (4 h); 85.6% in series [1] (8 h); 78.8% in series [1] (12 h); 71.5% in series [1] (16 h); 65.5% in series [1] (20 h). Also, the “percentage of test compound remaining (HPLC peak area %)” value in series [1] (24 h) is recorded as 61.7%.

In the case of `CO[C@@H]1[C@@H](O)[C@@H](O)[C@H](Oc2ccc(C(F)(F)CNC(C)=O)c(-c3cccc(F)c3)c2)OC1(C)C` [T12], the “percentage of test compound remaining (HPLC peak area %)” value is 100.0% in series [1] (0 h); 97.2% in series [1] (4 h); 95.5% in series [1] (8 h); 93.7% in series [1] (12 h); 92.3% in series [1] (16 h); 90.6% in series [1] (20 h). In series [1] (setting [3]), the “percentage of test compound remaining (HPLC peak area %)” value is reported as 89.9* %.

As for `CO[C@@H]1[C@@H](O)[C@@H](O)[C@@H](Oc2ccc(CCNC(C)=O)c(-c3cccc(F)c3)c2)OC1(C)C` [T20], the “percentage of test compound remaining (HPLC peak area %)” value in series [1] (0 h) is given as 100.0%; in series [1] (4 h) it was 97.7%; in series [1] (8 h), 94.8%; in series [1] (12 h), 91.9%; in series [1] (16 h), 89.2%; in series [1] (20 h), 86.8%. The “percentage of test compound remaining (HPLC peak area %)” value in series [1] (24 h) was determined as 84.4%.

As for `CC(=O)NCCc1ccc(O[C@@H]2OC(C)(C)[C@H](OC(F)F)[C@@H](O)[C@H]2O)cc1-c1cccc(F)c1` [T6], the “percentage of test compound remaining (HPLC peak area %)” value in series [1] (0 h) is listed as 100.0%; in series [1] (4 h), 99.1%; in series [1] (8 h) it was 99.0%; in series [1] (12 h), 97.6%; in series [1] (16 h), 96.6%; in series [1] (20 h), 96.0%. The “percentage of test compound remaining (HPLC peak area %)” value in series [1] (24 h) worked out at 95.7%.

Regarding `CO[C@@H]1[C@@H](O)[C@@H](O)[C@H](Oc2ccc(C(F)(F)CNC(C)=O)c(-c3cccc(F)c3)c2)O[C@H]1C` [T13], the “percentage of test compound remaining (HPLC peak area %)” value stood at 100.0% in series [1] (0 h); 99.3% in series [1] (4 h); 99.7% in series [1] (8 h); 100.3% in series [1] (12 h); 99.5% in series [1] (16 h); 99.7% in series [1] (20 h). In series [1] (24 h), the “percentage of test compound remaining (HPLC peak area %)” value amounted to 99.3%.
